The target in one assay is Bcl-xL (Homo sapiens, UniProt Q07817). The experiment in a line: TR-FRET binding assay. From the text: (§1) N-terminal GST-tagged-Mcl-1 protein from Mcl-1 (E171-G327), N-terminal GST-tagged Bcl-xL protein from Bcl-xL (1-209), N-Terminal 6His-tagged Bfl-1 protein from Bfl-1 (M1-K151), N-Terminal 6His-tagged Bcl-w protein from Bcl-w (M1-R171), and C-Terminal 6His-tagged Bcl-2 protein from Bcl-2 (M1-F212) were expressed as a tagged fusion protein in E. coli and subsequently purified via Glutathione Sepharose-affinity or Ni-NTA resin purification, and size-exclusion chromatography.
(§2) For TR-FRET, tagged fusion proteins were incubated with a Europium-labeled antibody and a HyLite Fluor 647-labeled peptide, or a biotin-labeled peptide with a streptavidin-labeled ulight fluorophore allowing the assembly of donor and acceptor dye pairs for use in protein-binding assays.
(§3) The reaction final concentrations for Mcl-1 were 1.5 nM GST-Mcl-1, 0.5 nM LanthaScreen Eu tagged GST antibody (LifeTechnologies cat#PV5594), and 4 nM HyLite Fluor 647-labeled Bim peptide C (Hilyte647 C2 Maleimide)-[…]; for Bcl-xl were 2 nM GST-Bcl-xl, 2 nM LanthaScreen Eu-tagged GST antibody, and 10 nM HyLite Fluor 647-labeled BAK peptide C(Hilyte647 C2 Maleimide)-[…]; for Bfl-1 were 4 nM His-Bfl-1, 0.5 nM LanthaScreen Eu-tagged HIS antibody (PerkinElmer cat#AD0205), and 10 nM HyLite Fluor 647-labeled BIM peptide C(Hilyte647-C2-Maleimide)-[…]; for Bcl-2 and Bcl-w: 2 nM His-Bcl-2, or 2 nM His-Bcl-w, with 0.5 nM LanthaScreen Eu-tagged HIS antibody, 10 nM biotin-labeled Bim peptide (Biotin-lc-[…]), and 2.4 nM a streptavidin labeled ULight Fluorophore (PerkinElmer cat#TRF0102-D). Reactions were incubated at 24 °C for 120–180 min before reading on a Tecan (InfiniteM1000 spectrofluorometer) with excitation at 340 nm and emission at […] and 665 nm. Ratio of fluorescent emission intensity at 665–620 nm was calculated for each reaction (equation 1). Percent inhibition was calculated based upon min (control compound) vs. max (DMSO) according to Eq. (2) and the IC50 was derived the smart fit curve (Genedata screener) of % inhibition vs. concentration. Ki values were calculated from Eq. […]

For a further assay, the target named is T1, Bcl-w (Homo sapiens, UniProt Q92843).
T1 construct: N-Terminal 6His-tagged Bcl-w protein from Bcl-w (M1-R171); made in house; host or cells: E. coli
T1 sequence (Q92843 1-171): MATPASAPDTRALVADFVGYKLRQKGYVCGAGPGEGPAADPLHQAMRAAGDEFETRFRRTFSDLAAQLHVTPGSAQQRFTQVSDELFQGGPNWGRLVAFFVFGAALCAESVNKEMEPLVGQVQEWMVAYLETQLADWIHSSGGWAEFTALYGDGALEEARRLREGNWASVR
Put plainly: TR-FRET binding assay.
Source text: as §1, §2, §3
For orientation: In TR-FRET formats the signal depends on donor and acceptor labels being close together.

A further assay deals with T2, Bfl-1 (Homo sapiens, UniProt Q16548).
T2 construct: N-Terminal 6His-tagged Bfl-1 protein from Bfl-1 (M1-K151); made in house; host or cells: E. coli
Put plainly: TR-FRET binding assay.
Source text: as §1, §2, §3

Assay [1] deals with Eμ-Myc lymphoma cells, control. Put plainly: cells. Conditions: Mus musculus, 24 h, read-out: apoptosis induction EC50 control.
Source text: The retroviral plasmids to express human Bcl-2 family members in murine Eμ-Myc lymphoma cells are MSCV-hMCL-1-GFP, MSCV-hBCL-2-GFP, MSCV-hBCL-XL-GFP, MSCV-hBFL-1/A1-GFP, and MSCV-hBCL-w-GFP. To produce viruses, constructs of interest were co-transfected into HEK293T cells with the plasmid encoding the packaging viruses (p-CL-AMPHO provided by Phillip Darcy from Peter MacCallum Cancer Center, Melbourne, Australia) using standard calcium phosphate transient transfection technique. The retroviruses were harvested, filtered and used to infect target cells following standard procedures.
Samples were then centrifuged, washed twice with PBS and analyzed by flow cytometry in a BD LSRFortessa. FACSDiva software was used for data collection and FlowJo software for data analysis.
In a further assay the test system is RCPIWM1. Put plainly: Cell viability assay. It is filed as cell-based. Conditions: 24 h; RCPIWM1 (NHL); read-out: AZD5991 24h GI50.
A further assay deals with U266B1. The experiment in a line: Cell viability assay. It is filed as cell-based. Conditions: 24 h; U266B1 (MM); read-out: AZD5991 24h GI50.
The next assay concerns primary MM cells. Conditions: 48 MM patients, 24 h, Annexin V by flow.
The next assay deals with OCILY19. Put plainly: Cell viability assay. It is filed as cell-based. Conditions: Homo sapiens, OCI-LY19, 24 h; OCILY19 (NHL); read-out: AZD5991 24h GI50.
Another assay concerns ZR751. The experiment in a line: Cell viability assay. In kind it is cell-based. The conditions noted are these: Homo sapiens, ZR-75-1, 24 h; ZR751 (Breast); read-out: AZD5991 24h GI50.
Another assay deals with Z-138. The experiment in a line: Cell viability assay. It is filed as cell-based. Conditions: Homo sapiens, 24 h; Z-138 (NHL); read-out: AZD5991 24h GI50.
A further assay deals with WM2664. The experiment in a line: Cell viability assay. In kind it is cell-based. Conditions: Homo sapiens, WM 266-4, 24 h; WM2664 (Skin); read-out: AZD5991 24h GI50.
A further assay concerns THP-1. Put plainly: Cell viability assay. In kind it is cell-based. The conditions noted are these: Homo sapiens, 24 h; THP-1 (AML); read-out: AZD5991 24h GI50.
In another assay the test system is CMK. The experiment in a line: Cell viability assay. The conditions noted are these: Homo sapiens, 24 h; CMK (AML); read-out: AZD5991 24h GI50. It is filed as cell-based.
A further assay has as its system NCI-H929. Put plainly: Cell viability assay. In kind it is cell-based. The conditions noted are these: Homo sapiens, 24 h; NCI-H929 (MM); read-out: AZD5991 24h GI50.
The test system of another assay is OCIAML3. Put plainly: Cell viability assay. In kind it is cell-based. Conditions: Homo sapiens, OCI-AML-3, 24 h, read-out: AZD5991 24h GI50.
Another assay deals with H23. Put plainly: Caspase-3/7 activation assay. The conditions noted are these: Homo sapiens. In kind it is cell-based.
The next assay has as its system MM1R. Put plainly: Cell viability assay. It is filed as cell-based. Conditions: MM.1R, 24 h, read-out: AZD5991 24h GI50.
A further assay deals with H1568. Put plainly: Cell viability assay. It is filed as cell-based. The conditions noted are these: NCI-H1568, 24 h; H1568 (Lung); read-out: AZD5991 24h GI50.
The test system of another assay is GIST 430/654. The experiment in a line: Cell viability assay. It is filed as cell-based. The conditions noted are these: 24 h; GIST 430/654 (GI); read-out: AZD5991 24h GI50.

Where two headings read alike, the source gives them in different places.

Chain of Bcl-xL (Q07817 1-209): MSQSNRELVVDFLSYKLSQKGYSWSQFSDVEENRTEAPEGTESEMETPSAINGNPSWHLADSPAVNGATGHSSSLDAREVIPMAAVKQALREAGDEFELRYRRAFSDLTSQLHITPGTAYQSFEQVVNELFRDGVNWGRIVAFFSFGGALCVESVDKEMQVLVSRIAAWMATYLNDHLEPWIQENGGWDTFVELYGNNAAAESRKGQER
T2 sequence (Q16548 1-151): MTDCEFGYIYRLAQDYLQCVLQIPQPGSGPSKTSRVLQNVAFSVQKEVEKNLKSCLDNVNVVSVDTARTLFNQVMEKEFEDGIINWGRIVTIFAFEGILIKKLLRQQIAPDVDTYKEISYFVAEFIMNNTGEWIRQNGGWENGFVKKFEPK
Procedure for CMK: (§4) Cells were plated at 3000 cells/well in 384-well white plates in corresponding cell growth media. […] Caspase-3/7 activation was subsequently determined using a Caspase-Glo 3/7 Reagent (Promega) and viability was assayed using the CellTiter-Glo Reagent (Promega) as described in manufacturer’s instructions. Dose–response curves for caspase-3/7 activation and viability were plotted and analyzed (including EC50 and GI50 determination) using GraphPad Prism.
Procedure for GIST 430/654: as §4
Procedure for H1568: as §4
Procedure for H23: as §4
Procedure for MM1R: as §4
Procedure for NCI-H929: as §4
Procedure for OCIAML3: as §4
Procedure for OCILY19: as §4
Procedure for RCPIWM1: as §4
Procedure for THP-1: as §4
Procedure for U266B1: as §4
Procedure for WM2664: as §4
Procedure for Z-138: as §4
Procedure for ZR751: as §4

In the case of `Cc1c2c(nn1C)CSCc1cc(n(C)n1)CSc1cc(c3ccccc3c1)OCCCc1c(C(=O)O)n(C)c3c-2c(Cl)ccc13` (atropisomer, axis not shown; (Ra)) [(Ra)-7], the half-maximal inhibitory concentration (IC50) was 36000 nM at Bcl-xL (FRET), 49000 nM at Bcl-w (FRET) and 24000 nM on Bfl-1 (FRET). In addition, the inhibition constant (Ki) on Bcl-xL (calculated from FRET IC50) was 18000 nM; at Bcl-w (calculated from FRET IC50), 25000 nM; on Bfl-1 (calculated from FRET IC50) it was 12000 nM. Moreover, the EC50 in [1] was 1070 nM; in the assay on H23 (NCI-H23, 6 h, read-out: AZD5991 6h EC50, H23 (Lung), caspase 3/7 activation), 346 nM; with H23 (NCI-H23, caspase activation, Mcl-1-dependent cell line, read-out: NCI-H23, EC50), 190 nM; in the assay with H23 (NCI-H23, mean of log transformed data, read-out: NCI-H23 caspase pEC50 (converted)), 195 nM. For the same compound, the GI50 with RCPIWM1 was 20 nM; with U266B1, above 30000 nM; in the assay with OCILY19 it was 140 nM; with ZR751, 21200 nM; in the assay on Z-138, 290 nM; in the assay with WM2664 it was 13200 nM. Also, the GI50 was 76 nM in the assay on THP-1; above 30000 nM in the assay on CMK; 53 nM in the assay on NCI-H929; 714 nM with OCIAML3; 87 nM in the assay with MM1R; 272 nM in the assay on H1568. Also, the GI50 with GIST 430/654 was determined as 1620 nM. In addition, in the assay with primary MM cells, the “MM primary samples with EC50 values below 100 nM” value amounted to 71%.

What is called IC50 is the concentration that inhibits the measured activity by half. One may read the Ki as the dissociation constant of the complex between target and ligand, obtained from inhibition or displacement. For orientation: GI50 means the concentration at which growth is held to half of that of the control.

The values are drawn from PMC6297231 (Nature Communications, 2018).
